System: Nkx2.1-GFP+ sorted cells at stage VI
Assay: qRT-PCR gene expression in Nkx2.1-GFP+ sorted cells at stage VI treated with T3, DITPA or T3+DITPA
Assay type: cell-based, human
Method: RNA was isolated from cells by using RNeasy Mini Kit (Qiagen) according to the manufacturer's instruction and treated with DNase-I to remove genomic DNA. The concentrations of total RNA were measured by Nanodrop ND-1000 spectrophotometer v3.7 (Thermo Specific) and complementary DNA (cDNA) was synthesized from 1 μg of total RNA using High-Capacity cDNA Reverse Transcription Kit (Applied Biosystems) according to the manufacturer's instructions. Real-Time Quantitative Reverse Transcription Polymerase Chain Reaction (qRT-PCR) was performed with 5-20 ng of cDNA template, 2× Taqman Gene expression master mix and 20× Taqman probes (Life technologies) on ABI Prism 7900HT Sequence detection system (Applied Biosystems). Gapdh served as an endogenous standard control. The qRT-PCR thermo-cycling reaction was 1 cycle at 50° C. for 2 minutes, 1 cycle at 95° C. for 10 minutes and 40 cycles of 95° C. for 15 seconds, then 60° C. for 1 minute. The threshold cycle (CT) value, which represents the cycle at which the first PCR product is detected, was measured in triplicate and normalized against the endogenous control, GAPDH, to determine the ΔCT value. Then the ΔCT values of GFP-positive cells were then standardized against the ΔCT values of undifferentiated hESCs, derived as relative mRNA expression (ΔΔCT).
Bar graphs illustrating the qRT-PCR analyses in FIG. 2, 3, S1-3 representing the log2 of the average fold-change in gene expression compared directly to the undifferentiated Stage I hESC or T3-treated cells at day 7 in FIG. 5 and S5.

[1] = compared to T3 treated cultures
[2] = differentiating cultures treated with DITPA

In the case of O=C(O)CCc1cc(I)c(Oc2ccc(O)cc2)c(I)c1 [DITPA, 3,5-Diiodothyropropionic acid], the “cdkn1b (p27) expression” value [1] is reported as “up-regulated”, the “tp53 (p53) expression” value [1] is reported as “up-regulated” and the OL differentiation (compared with T3) is reported as “promotes OL differentiation”. The dio2 expression (compared with T3 treatment) was “no significant differences”, the dio3 expression (compared with T3 treatment) was “no significant differences” and the thrb expression (compared with T3 treatment) was “no significant differences”. For the same molecule, the “slc16a2 (MCT8) expression” value (day 7, compared with T3) was “significant up-regulation”, the “slc16a10 (MCT10) expression” value (day 7, compared with T3) was “significant up-regulation” and the plp1 expression (day 21 of treatment, versus T3 alone) was “substantial up-regulation”. For the same molecule, the mbp expression [2] was “up-regulation”, the myt1 expression [2] was “up-regulation” and the plp1 expression [2] was “up-regulation”. For the same molecule, the olig1 expression (following DITPA treatment) was “up-regulated”, the olig2 expression (following DITPA treatment) was “up-regulated” and the sox10 expression (following DITPA treatment) was “up-regulated”. For the same molecule, the “up-regulation of slc16a10” value (following DITPA treatment) was roughly 14 fold, the bmp7 expression (upon DITPA treatment) was “down-regulation” and the “frzb expression (WNT antagonist)” value (upon DITPA treatment) was “up-regulation”. The jun expression (upon DITPA treatment) was “down-regulation”, the “sfrp1 expression (WNT antagonist)” value (upon DITPA treatment) was “up-regulation” and the “sfrp2 expression (WNT antagonist)” value (upon DITPA treatment) was “up-regulation”. For the same molecule, the tgfb3 expression (upon DITPA treatment) was “down-regulation”, the “tnfrsf2 (encodes DR6) expression” value (upon DITPA treatment) was “almost negligible up-regulation” and the wnt5a expression (upon DITPA treatment) was “down-regulation”.

Reference: patent publication US10640748B2, “Oligodendroglial cell culturing methods and in methods for treating neurodegenerative disorders by using thyroid hormones or analogues” (NeuOrphan Pty Ltd, priority 2014, dated 2020)
